Experiments:
Test in all cases: Kinase profiling
Format in all cases: biochemical
[1] = target: T1, A-Raf(h) (Homo sapiens, UniProt P10398)
T1 construct: purchased Eurofins Cerep SA (KinaseProfiler)
Protocol: (§1) 380 kinases inhibitory activities of SKLB-D18 were conducted by Eurofins Cerep SA. The result was illustrated by kinase tree (http://www.kinhub.org/kinmap/).

[2] = target: T2, AMPKα2(h) (Homo sapiens, UniProt P54646)
T2 construct: purchased Eurofins Cerep SA (KinaseProfiler)
Protocol: as §1

[3] = target: T3, ATM(h) (Homo sapiens, UniProt Q13315)
T3 construct: purchased Eurofins Cerep SA (KinaseProfiler)
Protocol: as §1

[4] = target: T4, Aurora-A(h) (Homo sapiens, UniProt O14965)
T4 construct: purchased Eurofins Cerep SA (KinaseProfiler)
Protocol: as §1

[5] = target: T5, CDK1/cyclinB(h) (Homo sapiens, UniProt P06493)
T5 construct: purchased Eurofins Cerep SA (KinaseProfiler)
Protocol: as §1

[6] = target: T6, CK1γ1(h) (Homo sapiens, UniProt Q9HCP0)
T6 construct: purchased Eurofins Cerep SA (KinaseProfiler)
Protocol: as §1

[7] = target: T7, CK1γ2(h) (Homo sapiens, UniProt P78368)
T7 construct: purchased Eurofins Cerep SA (KinaseProfiler)
Protocol: as §1

[8] = target: T8, CK1δ(h) (Homo sapiens, UniProt P48730)
T8 construct: purchased Eurofins Cerep SA (KinaseProfiler)
Protocol: as §1

[9] = target: T9, CK2α1(h) (Homo sapiens, UniProt P68400)
T9 construct: purchased Eurofins Cerep SA (KinaseProfiler)
Protocol: as §1

[10] = target: T10, CLK1(h) (Homo sapiens, UniProt P49759)
T10 construct: purchased Eurofins Cerep SA (KinaseProfiler)
Protocol: as §1

[11] = target: T11, CLK4(h) (Homo sapiens, UniProt Q9HAZ1)
T11 construct: purchased Eurofins Cerep SA (KinaseProfiler)
Protocol: as §1

[12] = target: T12, CRIK(h) (Homo sapiens, UniProt O14578)
T12 construct: purchased Eurofins Cerep SA (KinaseProfiler)
T12 sequence (O14578 whole entry): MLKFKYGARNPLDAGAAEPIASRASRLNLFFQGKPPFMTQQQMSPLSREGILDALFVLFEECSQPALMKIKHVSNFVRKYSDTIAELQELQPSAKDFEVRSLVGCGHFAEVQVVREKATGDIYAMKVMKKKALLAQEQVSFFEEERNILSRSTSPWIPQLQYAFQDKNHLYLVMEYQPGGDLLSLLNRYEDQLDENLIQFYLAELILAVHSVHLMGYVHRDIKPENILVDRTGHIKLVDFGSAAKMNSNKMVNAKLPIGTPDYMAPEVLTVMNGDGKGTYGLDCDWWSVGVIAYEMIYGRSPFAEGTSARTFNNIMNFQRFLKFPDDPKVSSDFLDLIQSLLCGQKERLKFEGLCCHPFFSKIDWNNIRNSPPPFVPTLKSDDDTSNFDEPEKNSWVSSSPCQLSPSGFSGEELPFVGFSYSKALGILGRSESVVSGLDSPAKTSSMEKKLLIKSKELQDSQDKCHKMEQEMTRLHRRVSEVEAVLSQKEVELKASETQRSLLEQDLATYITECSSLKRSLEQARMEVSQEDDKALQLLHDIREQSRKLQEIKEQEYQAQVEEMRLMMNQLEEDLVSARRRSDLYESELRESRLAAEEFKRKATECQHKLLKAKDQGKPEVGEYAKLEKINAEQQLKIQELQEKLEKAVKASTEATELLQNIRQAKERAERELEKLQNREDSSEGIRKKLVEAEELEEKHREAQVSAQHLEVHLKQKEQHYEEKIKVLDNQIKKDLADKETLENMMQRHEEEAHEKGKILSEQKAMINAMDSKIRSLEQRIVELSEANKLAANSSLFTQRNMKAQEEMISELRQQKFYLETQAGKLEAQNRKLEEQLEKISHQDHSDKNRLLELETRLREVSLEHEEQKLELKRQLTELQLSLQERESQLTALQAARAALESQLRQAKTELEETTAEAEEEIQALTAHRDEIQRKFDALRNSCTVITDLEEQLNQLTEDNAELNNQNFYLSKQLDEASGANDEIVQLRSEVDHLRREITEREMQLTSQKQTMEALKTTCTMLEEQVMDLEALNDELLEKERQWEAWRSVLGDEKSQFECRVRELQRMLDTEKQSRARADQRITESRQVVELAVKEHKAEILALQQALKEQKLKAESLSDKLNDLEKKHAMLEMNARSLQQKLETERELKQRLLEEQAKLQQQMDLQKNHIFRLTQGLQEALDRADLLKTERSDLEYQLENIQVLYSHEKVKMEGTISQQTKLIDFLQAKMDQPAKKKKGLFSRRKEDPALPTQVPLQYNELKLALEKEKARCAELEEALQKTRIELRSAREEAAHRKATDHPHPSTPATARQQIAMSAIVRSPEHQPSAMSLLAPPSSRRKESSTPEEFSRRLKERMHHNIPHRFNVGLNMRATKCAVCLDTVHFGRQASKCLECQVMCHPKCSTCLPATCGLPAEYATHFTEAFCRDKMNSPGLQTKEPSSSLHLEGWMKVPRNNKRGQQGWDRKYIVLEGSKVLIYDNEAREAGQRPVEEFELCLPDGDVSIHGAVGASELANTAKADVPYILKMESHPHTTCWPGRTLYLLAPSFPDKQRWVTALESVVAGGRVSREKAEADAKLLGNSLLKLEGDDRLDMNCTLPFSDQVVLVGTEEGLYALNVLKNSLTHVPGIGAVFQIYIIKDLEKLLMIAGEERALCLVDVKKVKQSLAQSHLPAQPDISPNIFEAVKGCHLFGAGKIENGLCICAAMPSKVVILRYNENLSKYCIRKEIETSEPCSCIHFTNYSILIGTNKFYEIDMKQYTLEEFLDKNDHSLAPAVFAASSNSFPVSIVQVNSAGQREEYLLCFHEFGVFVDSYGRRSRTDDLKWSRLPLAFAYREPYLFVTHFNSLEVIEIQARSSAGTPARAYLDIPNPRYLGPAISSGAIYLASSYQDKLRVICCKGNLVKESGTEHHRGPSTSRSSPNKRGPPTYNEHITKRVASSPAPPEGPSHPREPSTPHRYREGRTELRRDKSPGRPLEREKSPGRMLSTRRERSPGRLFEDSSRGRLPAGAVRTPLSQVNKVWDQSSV
Protocol: as §1

[13] = target: T13, CSK(h) (Homo sapiens, UniProt P41240)
T13 construct: purchased Eurofins Cerep SA (KinaseProfiler)
T13 sequence (P41240 whole entry): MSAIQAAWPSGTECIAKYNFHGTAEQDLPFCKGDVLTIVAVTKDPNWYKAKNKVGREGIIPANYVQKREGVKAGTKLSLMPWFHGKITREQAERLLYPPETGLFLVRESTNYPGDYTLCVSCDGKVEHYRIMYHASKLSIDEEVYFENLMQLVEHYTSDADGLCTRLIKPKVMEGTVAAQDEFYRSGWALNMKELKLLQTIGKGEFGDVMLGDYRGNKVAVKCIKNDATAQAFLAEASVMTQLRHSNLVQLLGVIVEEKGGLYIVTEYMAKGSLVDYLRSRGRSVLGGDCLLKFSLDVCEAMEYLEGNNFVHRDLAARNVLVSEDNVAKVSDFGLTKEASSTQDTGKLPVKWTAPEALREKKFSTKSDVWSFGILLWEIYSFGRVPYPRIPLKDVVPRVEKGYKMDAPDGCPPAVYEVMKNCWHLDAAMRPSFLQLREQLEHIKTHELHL
Protocol: as §1

[14] = target: T14, CaMKIIα(h) (Homo sapiens, UniProt Q9UQM7)
T14 construct: purchased Eurofins Cerep SA (KinaseProfiler)
Protocol: as §1

[15] = target: T15, CaMKIIγ(h) (Homo sapiens, UniProt Q13555)
T15 construct: purchased Eurofins Cerep SA (KinaseProfiler)
Protocol: as §1

[16] = target: T16, Cdc7/cyclinB1(h) (Homo sapiens, UniProt O00311)
T16 construct: purchased Eurofins Cerep SA (KinaseProfiler)
Protocol: as §1

[17] = target: T17, EphA7(h) (Homo sapiens, UniProt Q15375)
T17 construct: purchased Eurofins Cerep SA (KinaseProfiler)
Protocol: as §1

[18] = target: T18, HIPK3(h) (Homo sapiens, UniProt Q9H422)
T18 construct: purchased Eurofins Cerep SA (KinaseProfiler)
Protocol: as §1

[19] = target: T19, HPK1(h) (Homo sapiens, UniProt Q92918)
T19 construct: purchased Eurofins Cerep SA (KinaseProfiler)
Protocol: as §1

[20] = target: T20, ICK(h) (Homo sapiens, UniProt Q9UPZ9)
T20 construct: purchased Eurofins Cerep SA (KinaseProfiler)
Protocol: as §1

[21] = target: T21, LIMK1(h) (Homo sapiens, UniProt P53667)
T21 construct: purchased Eurofins Cerep SA (KinaseProfiler)
Protocol: as §1

[22] = target: T22, MAP4K5(h) (Homo sapiens, UniProt Q9Y4K4)
T22 construct: purchased Eurofins Cerep SA (KinaseProfiler)
Protocol: as §1

[23] = target: T23, MINK(h) (Homo sapiens, UniProt Q8N4C8)
T23 construct: purchased Eurofins Cerep SA (KinaseProfiler)
Protocol: as §1

[24] = target: T24, MLCK(h) (Homo sapiens, UniProt Q9H1R3)
T24 construct: purchased Eurofins Cerep SA (KinaseProfiler)
Protocol: as §1

[25] = target: T25, MLK4(h) (Homo sapiens, UniProt Q5TCX8)
T25 construct: purchased Eurofins Cerep SA (KinaseProfiler)
Protocol: as §1

[26] = target: T26, NEK6(h) (Homo sapiens, UniProt Q9HC98)
T26 construct: purchased Eurofins Cerep SA (KinaseProfiler)
Protocol: as §1

[27] = target: T27, NEK7(h) (Homo sapiens, UniProt Q8TDX7)
T27 construct: purchased Eurofins Cerep SA (KinaseProfiler)
Protocol: as §1

[28] = target: T28, NEK9(h) (Homo sapiens, UniProt Q8TD19)
T28 construct: purchased Eurofins Cerep SA (KinaseProfiler)
Protocol: as §1

[29] = target: T29, PDGFRβ(h) (Homo sapiens, UniProt P09619)
T29 construct: purchased Eurofins Cerep SA (KinaseProfiler)
Protocol: as §1

[30] = target: T30, PEK(h) (Homo sapiens, UniProt Q9NZJ5)
T30 construct: purchased Eurofins Cerep SA (KinaseProfiler)
Protocol: as §1

[31] = target: T31, PI3 Kinase (p110d/p85a)(h) (Homo sapiens, UniProt O00329)
T31 construct: purchased Eurofins Cerep SA (KinaseProfiler)
T31 sequence (O00329 whole entry): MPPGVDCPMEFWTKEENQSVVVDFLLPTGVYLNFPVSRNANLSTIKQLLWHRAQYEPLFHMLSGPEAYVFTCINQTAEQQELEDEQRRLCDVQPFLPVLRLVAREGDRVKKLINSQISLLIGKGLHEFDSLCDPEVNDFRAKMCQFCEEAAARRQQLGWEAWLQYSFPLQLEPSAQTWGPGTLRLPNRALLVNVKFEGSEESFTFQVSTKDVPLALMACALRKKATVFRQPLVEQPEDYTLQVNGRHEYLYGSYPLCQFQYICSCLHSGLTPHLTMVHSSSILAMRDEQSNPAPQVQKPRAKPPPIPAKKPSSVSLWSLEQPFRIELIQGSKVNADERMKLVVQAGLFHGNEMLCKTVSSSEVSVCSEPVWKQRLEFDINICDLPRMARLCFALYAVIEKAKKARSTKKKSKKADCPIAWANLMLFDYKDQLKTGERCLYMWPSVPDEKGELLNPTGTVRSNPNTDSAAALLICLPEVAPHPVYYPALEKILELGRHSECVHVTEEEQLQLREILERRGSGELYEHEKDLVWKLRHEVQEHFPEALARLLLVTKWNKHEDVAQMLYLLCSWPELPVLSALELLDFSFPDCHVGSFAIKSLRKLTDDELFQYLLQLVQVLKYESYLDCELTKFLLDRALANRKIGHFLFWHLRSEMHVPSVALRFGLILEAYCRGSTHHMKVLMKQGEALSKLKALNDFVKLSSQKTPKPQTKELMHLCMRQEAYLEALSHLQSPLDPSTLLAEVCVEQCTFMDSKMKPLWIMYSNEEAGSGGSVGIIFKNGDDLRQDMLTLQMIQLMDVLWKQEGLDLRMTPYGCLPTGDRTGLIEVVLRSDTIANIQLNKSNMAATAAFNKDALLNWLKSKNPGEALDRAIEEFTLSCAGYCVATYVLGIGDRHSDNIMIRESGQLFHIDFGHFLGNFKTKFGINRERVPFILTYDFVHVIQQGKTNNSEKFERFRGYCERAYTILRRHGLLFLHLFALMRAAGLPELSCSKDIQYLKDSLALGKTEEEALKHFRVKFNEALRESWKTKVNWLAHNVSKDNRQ
T31 sequence (P27986 whole entry partner): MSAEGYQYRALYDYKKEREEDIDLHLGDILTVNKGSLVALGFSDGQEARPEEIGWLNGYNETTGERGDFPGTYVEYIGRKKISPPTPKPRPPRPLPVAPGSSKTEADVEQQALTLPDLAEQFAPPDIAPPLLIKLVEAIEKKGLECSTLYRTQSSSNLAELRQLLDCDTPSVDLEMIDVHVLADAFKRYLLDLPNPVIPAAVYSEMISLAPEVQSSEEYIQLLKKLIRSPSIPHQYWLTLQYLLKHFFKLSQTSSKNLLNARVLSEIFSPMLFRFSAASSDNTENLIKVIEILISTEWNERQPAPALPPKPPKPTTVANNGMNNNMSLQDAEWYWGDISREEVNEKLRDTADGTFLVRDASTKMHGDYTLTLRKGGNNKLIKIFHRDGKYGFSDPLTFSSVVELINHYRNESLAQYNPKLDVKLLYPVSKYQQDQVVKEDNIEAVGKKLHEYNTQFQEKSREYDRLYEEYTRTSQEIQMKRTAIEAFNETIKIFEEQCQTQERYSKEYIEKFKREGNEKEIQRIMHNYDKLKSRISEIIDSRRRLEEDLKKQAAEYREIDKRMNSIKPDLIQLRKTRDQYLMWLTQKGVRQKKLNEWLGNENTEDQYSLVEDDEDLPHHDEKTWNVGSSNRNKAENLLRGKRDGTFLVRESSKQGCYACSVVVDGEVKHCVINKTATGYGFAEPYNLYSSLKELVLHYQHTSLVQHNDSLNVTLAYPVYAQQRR
Protocol: as §1

[32] = target: T32, PI3 Kinase (p120g)(h) (Homo sapiens, UniProt P48736)
T32 construct: purchased Eurofins Cerep SA (KinaseProfiler)
Protocol: as §1

[33] = target: T33, PKG1α(h) (Homo sapiens, UniProt Q13976)
T33 construct: purchased Eurofins Cerep SA (KinaseProfiler)
Protocol: as §1

[34] = target: T34, PTK5(h) (Homo sapiens, UniProt P42685)
T34 construct: purchased Eurofins Cerep SA (KinaseProfiler)
Protocol: as §1

[35] = target: T35, Pyk2(h) (Homo sapiens, UniProt Q14289)
T35 construct: purchased Eurofins Cerep SA (KinaseProfiler)
Protocol: as §1

[36] = target: T36, SBK1(h) (Homo sapiens, UniProt Q52WX2)
T36 construct: purchased Eurofins Cerep SA (KinaseProfiler)
Protocol: as §1

[37] = target: T37, SGK(h) (Homo sapiens, UniProt O00141)
T37 construct: purchased Eurofins Cerep SA (KinaseProfiler)
Protocol: as §1

[38] = target: T38, TAO3(h) (Homo sapiens, UniProt Q9H2K8)
T38 construct: purchased Eurofins Cerep SA (KinaseProfiler)
Protocol: as §1

[39] = target: T39, TLK2(h) (Homo sapiens, UniProt Q86UE8)
T39 construct: purchased Eurofins Cerep SA (KinaseProfiler)
T39 sequence (Q86UE8 whole entry): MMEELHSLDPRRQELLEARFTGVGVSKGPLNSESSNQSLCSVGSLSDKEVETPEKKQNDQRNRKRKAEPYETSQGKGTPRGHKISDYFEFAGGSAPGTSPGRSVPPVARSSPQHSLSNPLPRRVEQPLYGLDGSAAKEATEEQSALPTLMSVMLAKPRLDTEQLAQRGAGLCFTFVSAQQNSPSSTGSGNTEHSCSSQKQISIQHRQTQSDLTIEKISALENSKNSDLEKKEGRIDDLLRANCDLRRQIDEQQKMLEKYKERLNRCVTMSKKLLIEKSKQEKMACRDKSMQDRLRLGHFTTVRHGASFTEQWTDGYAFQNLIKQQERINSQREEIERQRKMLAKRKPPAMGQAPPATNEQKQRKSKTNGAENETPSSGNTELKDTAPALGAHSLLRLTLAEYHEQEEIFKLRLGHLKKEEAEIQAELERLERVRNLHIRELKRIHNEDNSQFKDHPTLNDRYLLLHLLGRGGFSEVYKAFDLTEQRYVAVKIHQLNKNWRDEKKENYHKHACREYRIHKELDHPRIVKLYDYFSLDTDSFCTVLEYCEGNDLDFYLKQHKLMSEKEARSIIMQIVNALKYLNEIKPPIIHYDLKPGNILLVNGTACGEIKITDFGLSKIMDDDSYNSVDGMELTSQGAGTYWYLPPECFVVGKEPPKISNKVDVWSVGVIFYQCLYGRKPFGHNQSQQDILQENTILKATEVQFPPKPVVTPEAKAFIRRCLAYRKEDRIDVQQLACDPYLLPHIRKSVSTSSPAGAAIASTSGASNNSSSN
Protocol: as §1

[40] = target: T40, TRB2(h) (Homo sapiens, UniProt Q92519)
T40 construct: purchased Eurofins Cerep SA (KinaseProfiler)
Protocol: as §1

[41] = target: T41, mTOR/FKBP12(h) (Homo sapiens, UniProt P42345)
T41 construct: purchased Eurofins Cerep SA (KinaseProfiler)
Protocol: as §1

`CN(C)Cc1cccc(Nc2ncc(Cl)c(-c3csc(C(=O)NN4CCOCC4)c3)n2)c1` [SKLB-D18, 4-(5-chloro-2-((3-((dimethylamino)methyl)phenyl)amino)pyrimidin-4-yl)-N-morpholinothiophene-2-carboxamide] showed an inhibition at 1 µM [1] of 63%, an inhibition at 1 µM [2] of 60% and an inhibition at 1 µM [3] of 7%. The inhibition at 1 µM [4] was 51%, the inhibition at 1 µM [5] was 44% and the inhibition at 1 µM [6] was 16%. It also gave an inhibition at 1 µM [7] of 18%, an inhibition at 1 µM [8] of 16% and an inhibition at 1 µM [9] of 49%. It also gave an inhibition at 1 µM [10] of 17%, an inhibition at 1 µM [11] of 68% and an inhibition at 1 µM [12] of 19%. It also gave an inhibition at 1 µM [13] of -11%, an inhibition at 1 µM [14] of -25% and an inhibition at 1 µM [15] of 50%. It also gave an inhibition at 1 µM [16] of 30%, an inhibition at 1 µM [17] of 38% and an inhibition at 1 µM [18] of 64%. It also gave an inhibition at 1 µM [19] of 68%, an inhibition at 1 µM [20] of 20% and an inhibition at 1 µM [21] of 20%. It also gave an inhibition at 1 µM [22] of 51%, an inhibition at 1 µM [23] of 22% and an inhibition at 1 µM [24] of 16%. For the same molecule, the inhibition at 1 µM [25] was 24%, the inhibition at 1 µM [26] was 0% and the inhibition at 1 µM [27] was -2%. It also gave an inhibition at 1 µM [28] of 56%, an inhibition at 1 µM [29] of 21% and an inhibition at 1 µM [30] of 3%. The inhibition at 1 µM [31] was 0%, the inhibition at 1 µM [32] was 4% and the inhibition at 1 µM [33] was 9%. For the same molecule, the inhibition at 1 µM [34] was 35%, the inhibition at 1 µM [35] was 46% and the inhibition at 1 µM [36] was 55%. It also gave an inhibition at 1 µM [37] of 11%, an inhibition at 1 µM [38] of 36% and an inhibition at 1 µM [39] of 52%. For the same molecule, the inhibition at 1 µM [40] was 71% and the inhibition at 1 µM [41] was 8%.
